In patent publication US20260364076A1 (Amgen Inc., priority 2022, published 2026):
Read-outs that look alike come from different tables or passages of the source.

Columns and labels:
KRAS^G12C = details: cited from earlier work
[1] = Single-dose PK study in subjects with moderate or severe hepatic impairment compared to healthy subjects; type: in vivo, human
Procedure: (§1) This Example describes an open-label single-dose study of sotorasib that was conducted in healthy subjects and subjects with moderate or severe hepatic impairment (see, Inclusion/Exclusion criteria):
(§2) The primary objective of the study was to evaluate the pharmacokinetics (PK) of a single oral dose of sotorasib administered in subjects with moderate or severe hepatic impairment compared to subjects with normal hepatic function. The secondary objective of the study was to evaluate the safety and tolerability of sotorasib administered in subjects with moderate or severe hepatic impairment compared to subjects with normal hepatic function.
(§3) Subjects meeting eligibility requirements were assigned to 1 of 3 groups: Group 1—Normal function (No impairment, n=6-12); Group 2—Moderate impairment (Child-Pugh Class B, n=6-8); Group 3—Severe impairment (Child-Pugh Class C, n=6-8). The classification is based on Child-Pugh scores as per Figg et al. (1995).
The plasma PK parameters of sotorasib will be calculated using standard noncompartmental methods.
The data from hepatically impaired subjects (Group 2 and 3; tests) and control subjects (normal hepatic function [Group 1]; reference) will be included in the analysis. Geometric mean ratios (Test/Reference) for Cmax and AUC values and associated 90% confidence intervals will be estimated.
Additional parameters may be calculated, and sotorasib metabolites may be analyzed. PK parameters for the metabolites, if calculated, will not be subject to inferential statistical analysis. Specific details will be presented in the Statistical Analysis Plan for this study.

[2] = test system: cells and tumors harboring KRAS G12C mutations; details: cited from earlier work
[3] = test system: extracellular signal-regulated kinase (ERK); details: preclinical studies; cited from earlier work
KRAS p.G12C tumors = details: mice bearing KRAS p.G12C tumors; cited from earlier work
[4] = Safety and tolerability in single-dose hepatic impairment study; type: in vivo, human
Procedure: as §1, §2, §3

CYP3A = details: hepatic; cited from earlier work
[5] = Drug-drug interaction study with itraconazole (CYP3A4 inhibitor): sotorasib plasma PK in healthy subjects; details: human, in vivo, po, 360 mg; for AUC(0-inf): AUCinf (GLSM); for AUC(0-t): AUClast (GLSM)
Procedure: (§4) Safety and tolerability monitoring were performed throughout the study.

[6] = in vivo; cited from earlier work
[7] = test system: cancer with the KRAS G12C mutation; details: cited from earlier work
[8] = Drug-drug interaction study with rifampin (CYP3A4 inducer): sotorasib plasma PK in healthy subjects; type: in vivo, human; details: for Cmax / AUC(0-inf) / AUC(0-t): human, plasma, 960 mg; for AUC(0-inf): read-out: AUCinf (GLSM); for AUC(0-t): read-out: AUClast (GLSM)
Procedure: as §4

[9] = 360 mg sotorasib + 200 mg itraconazole (Test), day 6, healthy subjects
[10] = 360 mg sotorasib alone (Reference), day 1, single oral dose, healthy subjects
[11] = 960 mg sotorasib + 600 mg rifampin on day 3 (Test), single-dose rifampin
[12] = 960 mg sotorasib + 600 mg rifampin on day 18 (Test), multiple daily dosing of rifampin
[13] = 960 mg sotorasib on day 1 (Reference), healthy subjects

With `C=CC(=O)N1CCN(c2nc(=O)n(-c3c(C)ccnc3C(C)C)c3nc(-c4c(O)cccc4F)c(F)cc23)[C@@H](C)C1` (atropisomer, axis not shown; (M)) [Sotorasib, 6-fluoro-7-(2-fluoro-6-hydroxyphenyl)-(1M)-1-[4-methyl-2-(propan-2-yl)pyridin-3-yl]-4-[(2S)-2-methyl-4-(prop-2-enoyl)piperazin-1-yl]pyrido[2,3-d]pyrimidin-2(1H)-one] as the molecule, how does the “inhibition of KRAS^G12C” value (KRAS^G12C) read?
Its value is “specifically and irreversibly inhibits”.

What about the half-life ([1]; human, in vivo, po, 960 mg, read-out: half-life (t1/2), arithmetic mean) of the same molecule?
The half-life was 6.42 to 8.18 h.

And the Tmax ([1]; human, in vivo, po, 960 mg, read-out: median tmax)?
The Tmax was 1 to 1.47 h.

What about the “PK and safety profile” value ([1]; moderate or severe hepatic impairment vs healthy subjects) of the same molecule?
The value was “clinically sufficiently similar to the PK and safety profile of healthy subjects”.

And the “half-life (t1/2), trend across hepatic function groups” value ([1]; normal, moderate or severe hepatic impairment, 960 mg sotorasib)?
Its value is “no apparent trend related to hepatic impairment”.

And the “growth and regression of cells and tumors” value [2]?
Its value is “inhibition of growth and regression of cells and tumors harboring KRAS G12C mutations”.

And the “inhibition of phosphorylation of ERK” value [3]?
Its value is “inhibited nearly all detectable phosphorylation”.

What about the tumor regression (KRAS p.G12C tumors) of the same molecule?
Its tumor regression is “durable complete tumor regression”.

What about the “findings in clinical laboratory evaluations, physical examinations, ECGs, and vital signs” value ([4]; 960 mg sotorasib single dose) of the same molecule?
The value was “no clinically meaningful findings”.

And the “serious adverse events or treatment-emergent adverse events leading to discontinuation” value ([4]; 960 mg sotorasib single dose)?
Its value is “no serious adverse events or treatment-emergent adverse events leading to discontinuation”.

What about the adverse event severity ([4]; all adverse events, 960 mg sotorasib) of the same molecule?
Its adverse event severity is “mild in severity”.

What about the “resolution of adverse events” value ([4]; by end of study) of the same molecule?
The value was “All the adverse events resolved by the end of study”.

What about the “treatment-emergent adverse events considered related to sotorasib” value ([4]; number of events, 20 subjects, Investigator assessment) of the same molecule?
Its value is 5.

And the treatment-emergent adverse events ([4]; number of events, 20 subjects, single dose 960 mg sotorasib)?
The treatment-emergent adverse events was 9.

What about the safety and tolerability ([4]; single doses, normal hepatic function, moderate or severe hepatic impairment) of the same molecule?
Its safety and tolerability is “safe and well-tolerated”.

And the metabolizing enzyme (CYP3A)?
Its metabolizing enzyme is “mainly metabolized by the hepatic enzymes CYP3A”.

And the Cmax [5]?
Its Cmax is 6130 ng/mL.

What about the Tmax [5] of the same molecule?
The Tmax was 0.51 h.

And the AUC(0-inf) [5, 9]?
The AUC(0-inf) was 31000 ng·h/mL.

What about the AUC(0-inf) [5, 10] of the same molecule?
The AUC(0-inf) was 24600 ng·h/mL.

What about the AUC(0-t) [5, 9] of the same molecule?
The AUC(0-t) was 30700 ng·h/mL.

What about the AUC(0-t) [5, 10] of the same molecule?
The AUC(0-t) was 22700 ng·h/mL.

What about the route of elimination [6] of the same molecule?
Its route of elimination is “mainly eliminated via the fecal route”.

And the tumor response ([7]; NSCLC, colorectal, pancreatic, appendiceal, endometrial, unknown primary, ampullary, gastric, small bowel, sinonasal, bile duct cancer, or melanoma)?
Its tumor response is “stable disease (SD) or partial response (PR)”.

And the “disease control rate (95% CI)” value ([7]; colorectal cancer, 42 patients)?
The value was 73.8%.

What about the “disease control rate (95% CI)” value ([7]; non-small cell lung cancer, 59 patients) of the same molecule?
Its value is 88.1%.

And the “disease control rate (95% CI)” value ([7]; other tumor types, 28 patients)?
Its value is 75.0%.

And the “Geometric mean exposures, based on AUC and Cmax” value ([8]; following coadministration with rifampin on days 3 and 18)?
The value was “lower following coadministration with rifampin on days 3 and 18”.

And the Cmax [8, 11]?
The Cmax was 5340 ng/mL.

What about the AUC(0-inf) [8, 11] of the same molecule?
Its AUC(0-inf) is 19600 ng·h/mL.

What about the AUC(0-t) [8, 11] of the same molecule?
Its AUC(0-t) is 19400 ng·h/mL.

What about the Cmax [8, 12] of the same molecule?
Its Cmax is 4110 ng/mL.

And the AUC(0-inf) [8, 12]?
The AUC(0-inf) was 12400 ng·h/mL.

And the AUC(0-t) [8, 12]?
Its AUC(0-t) is 12300 ng·h/mL.

And the AUC(0-inf) [8, 13]?
The AUC(0-inf) was 25600 ng·h/mL.

And the AUC(0-t) [8, 13]?
Its AUC(0-t) is 25400 ng·h/mL.
